What was measured:
[1] = biological target: T1, ALK2R206H (mutant ALK2, N-terminally tagged with GST) (Homo sapiens, UniProt Q04771, R206H); assay: ALK binding assay (LANTHASCREEN TR-FRET competitive binding, displacement of Kinase Tracer 178); conditions: read-out: Binding Assay (IC50 class)
T1 construct: purchased Carna Bioscience or ThermoFisher 09-148 or PV6232
T1 sequence (Q04771 21-509 R206H): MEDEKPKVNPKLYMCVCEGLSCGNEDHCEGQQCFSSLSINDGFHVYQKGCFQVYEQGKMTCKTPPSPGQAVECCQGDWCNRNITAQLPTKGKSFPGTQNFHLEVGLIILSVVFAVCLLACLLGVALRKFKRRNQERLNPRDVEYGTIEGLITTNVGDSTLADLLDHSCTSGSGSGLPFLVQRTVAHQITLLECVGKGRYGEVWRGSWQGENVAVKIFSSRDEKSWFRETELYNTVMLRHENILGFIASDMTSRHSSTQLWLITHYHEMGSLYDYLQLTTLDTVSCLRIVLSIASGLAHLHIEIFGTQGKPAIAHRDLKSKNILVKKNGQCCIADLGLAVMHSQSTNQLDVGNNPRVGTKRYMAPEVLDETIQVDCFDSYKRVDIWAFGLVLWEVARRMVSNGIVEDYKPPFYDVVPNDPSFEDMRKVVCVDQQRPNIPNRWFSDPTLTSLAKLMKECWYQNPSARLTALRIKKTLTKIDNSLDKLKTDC
In short: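 GST-tagged ALK2 R206H (2-5 nM) mixed with Eu-anti-GST antibody (4-10 nM), Kinase Tracer 178 (50 nM, near its Kd) and compound titration (1% DMSO) in Kinase Buffer A, 30 min at room temperature. Tracer displacement read as TR-FRET ratio, normalized to controls; IC50 from 4-parameter fit.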

[2] = biological target: T2, human ALK2 R206H (Homo sapiens, UniProt Q04771, R206H); assay: Cell-based ALK2-R206H cell activity assay (Smad1-Ser463/Ser465 phosphorylation by AlphaLISA in HEK293-ALK2-R206H cells); conditions: phospho-Smad1 AlphaLISA, read-out: Cell Line (Cell Assay, IC50 class)
T2 construct: expressed in transfected cells; host or cells: HEK293 (ATCC CRL1573), lentivirus transduction, blasticidin selection
T2 sequence (Q04771 21-509 R206H): T1 sequence (Q04771 21-509 R206H)
In short: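 HEK293 stable line expressing human ALK2 R206H with C-terminal FLAG, plated overnight in serum-free medium. Cells were treated 2-3 h with compound over 10 3-fold doses, top 10 μM or 1 μM, in duplicate. Phospho-Smad1 Ser463/465 in lysate was read by AlphaLISA; IC50 was normalised to DMSO (0%) and 1 μM LDN193189 (100%).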

Row | SMILES | IC50 [1] [nM] | IC50 [2] [nM]
1 | Cn1cc(-c2cc3c(N4CCN(C(=O)OC5COC5)CC4)ccnc3[nH]2)nc1Cl [Compound 275] | ≤ 10 | ≤ 100
2 | Cn1cc(-c2[nH]c3nccc(N4CCN(C(=O)OC5COC5)CC4)c3c2Cl)cn1 [Compound 276] | ≤ 10 | ≤ 100
3 | Cn1cc(-c2cc3c(N4CCN(C(=O)OC5COC5)CC4)ccnc3[nH]2)c(Cl)n1 [Compound 277] | ≤ 10 | ≤ 100
4 | Cn1cc(-c2cc3c(N4CCN(C(=O)[C@H]5CC[C@H](C#N)CC5)CC4)ccnc3[nH]2)cn1 [Compound 278] | ≤ 10 | ≤ 100
5 | O=C(OC1COC1)N1CCN(c2ccnc3[nH]c(-c4cnn(C(F)F)c4)cc23)CC1 [Compound 279] | ≤ 10 | ≤ 100
6 | O=C(OC1COC1)N1CCN(c2ccnc3[nH]c(-c4cn(C(F)F)cn4)cc23)CC1 [Compound 280] | ≤ 10 | ≤ 100
7 | CCOC(=O)N1CCN(c2ccnc3[nH]c(-c4cnn(S(C)(=O)=O)c4)cc23)CC1 [Compound 281] | ≤ 10 | 100 to 500
8 | CCOC(=O)N1CCN(c2ccnc3[nH]c(-c4ccc(C(C)(C)C#N)cn4)cc23)CC1 [Compound 282] | ≤ 10 | ≤ 100
9 | O=C(C1CC1)N1CCN(c2ccnc3[nH]c(-c4ccc(C5(O)COC5)cc4)cc23)CC1 [Compound 283] | ≤ 10 | 100 to 500
10 | Cc1nc(-c2[nH]c3nccc(N4CCN(C(=O)OC5CCC5)CC4)c3c2C#N)cn1C [Compound 284] | ≤ 10 | ≤ 100
11 | CC#Cc1c(-c2cnn(C)c2)[nH]c2nccc(N3CCN(C(=O)OC4COC4)CC3)c12 [Compound 285] | ≤ 10 | ≤ 100
12 | COCCOc1ccc(-c2cc3c(N4CCN(C(=O)C5CC5)CC4)ccnc3[nH]2)cc1 [Compound 286] | ≤ 10 | 100 to 500
13 | C[Si](C)(O)c1ccc(-c2cc3c(N4CCN(C(=O)C5CC5)CC4)ccnc3[nH]2)cc1 [Compound 287] | ≤ 10 | 100 to 500
14 | Cc1nc(-c2[nH]c3nccc(N4CCN(C(=O)OC5COC5)CC4)c3c2C#N)cn1C [Compound 288] | ≤ 10 | ≤ 100
15 | Cn1cc(-c2[nH]c3nccc(N4CCN(C(=O)O[C@H]5CCOC5)CC4)c3c2C#N)cn1 [Compound 289] | ≤ 10 | ≤ 100
16 | CCn1cnc(-c2[nH]c3nccc(N4CCN(C(=O)OC5COC5)CC4)c3c2C#N)c1 [Compound 290] | ≤ 10 | ≤ 100
17 | Cc1nc(-c2cc3c(N4CCN(C(=O)OCC(F)F)CC4)ccnc3[nH]2)sc1C [Compound 291] | ≤ 10 | ≤ 100
18 | Cn1cc(-c2cc3c(N4CCN(C(=O)OCCC(F)(F)F)CC4)ccnc3[nH]2)cn1 [Compound 292] | ≤ 10 | 100 to 500
19 | Cc1nc(-c2[nH]c3nccc(N4CCN(C(=O)OC5CCC5)CC4)c3c2C#N)cs1 [Compound 294] | ≤ 10 | ≤ 100
20 | Cn1cc(-c2[nH]c3nccc(N4CCN(C(=O)O[C@H]5C[C@H](F)C5)CC4)c3c2C#N)cn1 [Compound 295] | ≤ 10 | ≤ 100
21 | Cn1cnc(-c2[nH]c3nccc(N4CCN(C(=O)O[C@H]5C[C@@H](F)C5)CC4)c3c2C#N)c1 [Compound 296] | ≤ 10 | ≤ 100
22 | Cn1cnc(-c2[nH]c3nccc(N4CCN(C(=O)O[C@H]5C[C@H](F)C5)CC4)c3c2C#N)c1 [Compound 297] | ≤ 10 | ≤ 100
23 | Cn1cc(-c2[nH]c3nccc(N4CCN(C(=O)[C@H]5C[C@H](C#N)C5)CC4)c3c2Cl)cn1 [Compound 299] | ≤ 10 | ≤ 100
24 | O=C(OC1COC1)N1CCN(c2ccnc3[nH]c(-c4cnn(C5COC5)c4)cc23)CC1 [Compound 300] | ≤ 10 | 100 to 500

Row | SMILES | IC50 [1] [nM] | IC50 [2] [nM]
25 | O=C(OC1COC1)N1CCN(c2ccnc3[nH]c(-c4cn(C5COC5)cn4)cc23)CC1 [Compound 301] | ≤ 10 | 100 to 500
26 | O=C(OC1COC1)N1CCN(c2ccnc3[nH]c(-c4cn5c(n4)COCC5)cc23)CC1 [Compound 302] | ≤ 10 | ≤ 100
27 | Cc1nc(-c2[nH]c3nccc(N4CCN(C(=O)OC5COC5)CC4)c3c2C#N)cs1 [Compound 303] | ≤ 10 | ≤ 100
28 | Cc1nn(C(C)C)cc1-c1cc2c(N3CCN(C(=O)OC4COC4)CC3)ccnc2[nH]1 [Compound 304] | ≤ 10 | ≤ 100
29 | Cc1c(-c2cc3c(N4CCN(C(=O)OC5COC5)CC4)ccnc3[nH]2)cnn1C(C)C [Compound 305] | ≤ 10 | 100 to 500
30 | CS(=O)(=O)c1ccc(-c2cc3c(N4CCN(C(=O)C5CC5)CC4)ccnc3[nH]2)cc1 [Compound 307] | ≤ 10 | 100 to 500
31 | Cn1cc(-c2[nH]c3nccc(N4CCN(C(=O)OCC(F)F)CC4)c3c2Cl)cn1 [Compound 308] | ≤ 10 | ≤ 100
32 | CN(C)c1nc(-c2cc3c(N4CCN(C(=O)OC5COC5)CC4)ccnc3[nH]2)cn1C [Compound 310] | ≤ 10 | ≤ 100
33 | O=C(OC1CC1)N1CCN(c2ccnc3[nH]c(-c4nc5c(s4)COCC5)cc23)CC1 [Compound 311] | ≤ 10 | ≤ 100
34 | O=C(OC1COC1)N1CCN(c2ccnc3[nH]c(-c4ncc(C5CC5)s4)cc23)CC1 [Compound 312] | ≤ 10 | ≤ 100
35 | O=C(OC1COC1)N1CCN(c2ccnc3[nH]c(-c4nc(C5CC5)cs4)cc23)CC1 [Compound 313] | ≤ 10 | 100 to 500
36 | O=C(C1CC1)N1CCN(c2ccnc3[nH]c(-c4cnn(Cc5ccccc5)c4)cc23)CC1 [Compound 315] | ≤ 10 | ≤ 100
37 | CC(C)c1cnc(-c2cc3c(N4CCN(C(=O)OC5COC5)CC4)ccnc3[nH]2)s1 [Compound 316] | ≤ 10 | ≤ 100
38 | CC(C)c1csc(-c2cc3c(N4CCN(C(=O)OC5COC5)CC4)ccnc3[nH]2)n1 [Compound 317] | ≤ 10 | 100 to 500
39 | Cn1cc(-c2[nH]c3nccc(N4CCN(C(=O)C5CC5)CC4)c3c2Br)cn1 [Compound 320] | ≤ 10 | 100 to 500
40 | Cc1nc(-c2[nH]c3nccc(N4CCN(C(=O)OCC(F)F)CC4)c3c2C#N)cn1C [Compound 321] | ≤ 10 | ≤ 100
41 | N#CC1(c2ccc(-c3cc4c(N5CCN(C(=O)C6CC6)CC5)ccnc4[nH]3)c(F)c2)CC1 [Compound 322] | ≤ 10 | ≤ 100
42 | Cc1nc(-c2cc3c(N4CCN(C(=O)O[C@H]5C[C@H](F)C5)CC4)ccnc3[nH]2)sc1C [Compound 323] | ≤ 10 | ≤ 100
43 | O=C(c1ccc(-c2cc3c(N4CCN(C(=O)C5CC5)CC4)ccnc3[nH]2)cc1)N1CCC1 [Compound 324] | ≤ 10 | 100 to 500
44 | Cc1nc(-c2cc3c(N4CCN(C(=O)OC5CC(F)(F)C5)CC4)ccnc3[nH]2)cn1C [Compound 325] | ≤ 10 | ≤ 100
45 | Cc1nc(-c2cc3c(N4CCN(C(=O)O[C@@H]5CCC5(F)F)CC4)ccnc3[nH]2)cn1C [Compound 326] | ≤ 10 | ≤ 100
46 | O=C(C1CC1)N1CCN(c2ccnc3[nH]c(-c4ccc(C5CCCOC5)cc4)cc23)CC1 (stereo not shown) [Compound 328] | ≤ 10 | ≤ 100
47 | O=C(C1CC1)N1CCN(c2ccnc3[nH]c(-c4ccc(C5(O)CCCC5)cc4)cc23)CC1 [Compound 329] | ≤ 10 | ≤ 100

— patent US11236086B2, “Substituted pyrrolopyridines as inhibitors of activin receptor-like kinase” (BLUEPRINT MEDICINES CORPORATION, priority 2017, dated 2022)
